Measurements reported in patent publication US10239842B2, “Hydrosoluble compounds derived from benzimidazole used in treating fasciolosis” (UNIVERSIDAD NACIONAL AUTONOMA DE MEXICO, priority 2014, dated 2019).
Where two headings read alike, the source gives them in different places.

Tests used:
[1] = Studies of aqueous solubility (method reported by Yalkowski); format: physicochemical; details: determined at 25° C.
Procedure: Sample was stirred at room temperature for 48 hours until reaching equilibrium between the two phases. The tube was then centrifuged at 4500 rpm for minutes at room temperature. […] Its concentration was then determined in a spectrophotometer at 350 nm.

[2] = Stability studies in aqueous solution by UV-HPLC; format: physicochemical; details: >95% by UV-HPLC determined at room temperature
Procedure: Solutions were kept at room temperature (25° C.) for 26 hours (24 hour for TCBZ), and 5 mL of the samples were later diluted in 10 mL of water and analyzed by UV-HPLC.

[3] = tested on: mature and juvenile fasciola; details: dose of 15 mg/Kg; previous studies; cited from earlier work
Fasciola hepatica [4] = details: cited from earlier work; for Efficacy against Fasciola hepatica, first fasciola age span printed for the drug / Efficacy against Fasciola hepatica, second fasciola age span for the drug: sheep, recommended dose rates, span not recoverable from the grid; for Efficacy against Fasciola hepatica, first fasciola age span printed for the drug: first (younger) age span in weeks; for Efficacy against Fasciola hepatica, second fasciola age span for the drug: second (older) age span in weeks
Fasciola hepatica [5] = assay: In-vitro evaluation of fasciolicide efficacy on artificially excysted fasciola; format: cell-based
Procedure: In order to evaluate the anti-fasciola effect of compounds 5 and 6 as mixture of regioisomers, artificially excysted fasciola were used (approximately six hours after excystment), according to the disclosure by Ibarra and Jenkins, (1984). Briefly, recently excysted fasciola are suspended in 90 ml of Roswell Park Memorial Institute (RPMI)-1640® culture media plus 90 ml of bovine serum and 1.5 ml of antibiotics (Penicillin and Streptomycin) at a density of 100 individuals/ml.
5 mg of experimental compound was used and placed in a universal bottle (30 ml capacity), to which 0.1 ml of methanol was added to dissolve the compound. From this point, required dilutions are carried out with distilled water to prepare concentrations of 50 and 10 mg/l.
24-well NUNC® culture dishes were used and 1.6 ml of culture medium (RPMI/bovine serum), 0.2 ml of the compound concentration to be tested and 0.2 ml of RPMI containing 10 fasciola per well are placed into each well. Control wells which contain fasciola without compound are used per each dish, further including a control group with a reference drug (Triclabendazole-Fasinex®-Novartis). Each concentration is carried out three times. Each sample remains under incubation at 37° C. during 4 days under a 5% CO2 atmosphere.
Fasciola under study are examined at 24, 48 and 72 hours post-exposure to compound through an inverted microscope at 40×. Extract activity is measured by comparing survival of treated fasciola with control group fasciola. All procedures are carried out under aseptic conditions in a laminar flow hood.
Efficacy is measured by using the following formula (Abbott, 2004): % Efficacy=[Fasciola in control group−Fasciola in treated group]/[[…]]
The extract is considered to have fasciolicide activity when showing an in vitro efficacy higher than 80%. (Ibarra & Jenkins, 1984; Elango & Rahuman, 2011; Ibarra et al, 2013).

[6] = cited from earlier work
[7] = TCBZ solubility reported in literature; cited from earlier work
[8] = 24 h, read-out: EFFICACY (%) 1st Test, mortality percentage
[9] = 24 h, read-out: EFFICACY (%) 2nd Test, mortality percentage
[10] = 24 h, read-out: EFFICACY (%) 3rd Test, mortality percentage
[11] = 24 h, read-out: EFFICACY (%) Average, mortality percentage
[12] = 48 h, read-out: EFFICACY (%) 1st Test, mortality percentage
[13] = 48 h, read-out: EFFICACY (%) 2nd Test, mortality percentage
[14] = 48 h, read-out: EFFICACY (%) 3rd Test, mortality percentage
[15] = 48 h, read-out: EFFICACY (%) Average, mortality percentage
[16] = 72 h, read-out: EFFICACY (%) 1st Test, mortality percentage
[17] = 72 h, read-out: EFFICACY (%) 2nd Test, mortality percentage
[18] = 72 h, read-out: EFFICACY (%) 3rd Test, mortality percentage
[19] = 72 h, read-out: EFFICACY (%) Average, mortality percentage

In the case of CSc1nc2cc(Oc3cccc4ccccc34)c(Cl)cc2[nH]1 [Alpha compound, 5-Chloro-2-(methylthio)-6-(1-naphthyloxy)-1H-benzimidazole], the “Aqueous solubility pH 7” value [1] is listed as 2.6×10^−4 mg/mL, the “Aqueous solubility (h) pH 7 [chemical stability]” value [2] is listed as >26 h and the “efficacy against mature and juvenile fasciola” value [3] is listed as 86.9%.

In the case of CCCSc1ccc2nc(NC(=O)OC)[nH]c2c1 [Albendazole], the “efficacy over Fasciola hepatica” value (Fasciola hepatica [4]; fasciola age weeks 10-11) is given as 50-70% and the “efficacy over Fasciola hepatica” value (Fasciola hepatica [4]; fasciola age weeks 12-14) is given as 80-90%.

In the case of Nc1cc(C(Cl)=C(Cl)Cl)c(S(N)(=O)=O)cc1S(N)(=O)=O [Closuron], the “Efficacy against Fasciola hepatica, first fasciola age span printed for the drug” value (Fasciola hepatica [4]) is listed as 90-99%.

In the case of CC(=O)Nc1ccc(OCCOCCOc2ccc(NC(C)=O)cc2)cc1 [Diamphenetide], the “efficacy in adult fasciola” value (Fasciola hepatica [4]; 7-week adult fasciola) is given as “not being effective”, the “Efficacy against Fasciola hepatica, first fasciola age span printed for the drug” value (Fasciola hepatica [4]) is given as 91-100% and the “Efficacy against Fasciola hepatica, second fasciola age span for the drug” value (“Efficacy … second fasciola age span for the drug” below) (Fasciola hepatica [4]) is given as 50-80%.

In the case of CSc1nc2cc(Oc3cccc(Cl)c3Cl)c(Cl)cc2[nH]1 [Triclabendazole], the “Aqueous solubility (h) pH 7 [chemical stability]” value [2] is reported as >24 h, the mortality at 10 µg/mL (Fasciola hepatica [5]; [8]) is reported as 100% and the mortality at 50 µg/mL (Fasciola hepatica [5]; [8]) is reported as 100%. The mortality at 10 µg/mL (Fasciola hepatica [5]; [9]) was 100%, the mortality at 50 µg/mL (Fasciola hepatica [5]; [9]) was 100% and the mortality at 10 µg/mL (Fasciola hepatica [5]; [10]) was 100%. The mortality at 50 µg/mL (Fasciola hepatica [5]; [10]) was 100%, the mortality at 10 µg/mL (Fasciola hepatica [5]; [11]) was 100% and the mortality at 50 µg/mL (Fasciola hepatica [5]; [11]) was 100%. It also gave a mortality at 10 µg/mL (Fasciola hepatica [5]; [12]) of 100%, a mortality at 50 µg/mL (Fasciola hepatica [5]; [12]) of 100% and a mortality at 10 µg/mL (Fasciola hepatica [5]; [13]) of 100%. For the same molecule, the mortality at 50 µg/mL (Fasciola hepatica [5]; [13]) was 100%, the mortality at 10 µg/mL (Fasciola hepatica [5]; [14]) was 100% and the mortality at 50 µg/mL (Fasciola hepatica [5]; [14]) was 100%. For the same molecule, the mortality at 10 µg/mL (Fasciola hepatica [5]; [15]) was 100%, the mortality at 50 µg/mL (Fasciola hepatica [5]; [15]) was 100% and the mortality at 10 µg/mL (Fasciola hepatica [5]; [16]) was 100%. The mortality at 50 µg/mL (Fasciola hepatica [5]; [16]) was 100%, the mortality at 10 µg/mL (Fasciola hepatica [5]; [17]) was 100% and the mortality at 50 µg/mL (Fasciola hepatica [5]; [17]) was 100%. For the same molecule, the mortality at 10 µg/mL (Fasciola hepatica [5]; [18]) was 100%, the mortality at 50 µg/mL (Fasciola hepatica [5]; [18]) was 100% and the mortality at 10 µg/mL (Fasciola hepatica [5]; [19]) was 100%. The mortality at 50 µg/mL (Fasciola hepatica [5]; [19]) was 100%, the “Efficacy … second fasciola age span for the drug” value (Fasciola hepatica [4]) was 91-99% and the “absorbed fraction of administered dose” value ([6]; orally administered) was 5%. For the same molecule, the “plasma levels of triclabendazole as sulfoxide” value ([6]; share of dose) was 5%, the removed in feces ([6]; share of dose) was 92% and the removed in milk ([6]; share of dose) was 1%. For the same molecule, the removed in urine ([6]; share of dose) was 2% and the “Aqueous solubility pH 7” value [7] was 2.0 × 10^−4 mg/mL.

For O=C(Nc1ccc(Oc2ccc(Cl)cc2)c(Cl)c1)c1cc(I)cc(I)c1O [Rafoxanide], the “Efficacy … second fasciola age span for the drug” value (Fasciola hepatica [4]) is listed as 91-99%.
